In patent US20080155704A1, “Methods and Compositions for Determining in vivo Activity of BiP” (King's College London, priority 2006, published 2008):

Experiments:
Format in all cases: cell-based, human
[1] = tested on: IL-10; experiment: IL-10 production by dendritic cell cultures (ELISA); details: 3d GM-CSF and IL-4 with BiP 20 μg/ml; inhibitors 10 μM, anti-IL-10 added at day 0 (FIG. 13D)
Procedure: (§1) Supernatant samples were collected on day 1, 3 and 7 for iDC and from the final cultures of the T cells taken from the iDC/mDC-T cell allogeneic test system and set up with autologous cells to determine if there was any regulatory activity. The samples were aliquoted and frozen at −70° C. until required. Production IL-10 was quantified by ELISA using paired antibodies and recombinant standards (PharMingen, Oxford, UK) according to the recommendations of the manufacturer. In addition some were analysed by cytometric bead assay (BD, Oxford, UK) according to the manufacturers instructions.
(§2) To neutralize IL-10 within the cultures anti-IL-10 antibody (ATCC, Rockville, USA) was added at day 0 (5 μg/ml) to GM-CSF and IL-4 treated cultures in the presence and absence of BiP (20 μg/ml). Two specific cell-permeable inhibitors of the MAPK intracellular signalling pathways were used. SB203580 (SB)(10 μM)((Calbiochem, Darmstadt, Germany) inhibits p38 MAPK, and PD98059 (PD) (10 μM)(Calbiochem), an inhibitor of MAPK extracellular signal regulated kinase (ERK), were tested. MO were pre-treated with the inhibitors for 2 h before adding GM-CSF and IL-4 in the presence or absence of BiP.
as §1, with “of the pro-inflammatory cytokine, TNFα, and the anti-inflammatory cytokine, IL-10,” for “IL-10”

[2] = tested on: allogeneic T cells; experiment: Allogeneic proliferative response to early BiP treated DC (tritiated thymidine uptake); details: early DC 72 h; inhibitors 10 μM 2 h pre-treatment of monocytes; anti-IL-10 neutralizing antibody (FIG. 13A, B)
Procedure: Allogeneic responses by T cells in culture with irradiated (3,000 rads) early DC (eDC), after only 3d in culture with GM-CSF and IL-4 in the presence or absence of BiP (20 μg/ml) at a ratio of 10:1 PBMC:DC (105:10^4 cells/well). The results are shown as an allogeneic proliferative response (A) following addition of neutralizing anti-IL-10 ( 1/100 dilution) antibody and (B) the pre-treatment (2 h) of monocytes (MO) with p38 inhibitor, SB203580 (SB)(10 μM) or the ERK1/2 inhibitor, PD 98059 (PD)(10 μM), prior to the addition of GM-CSF and IL-4 to the cultures. The proliferation of PBMC to early DC following (C) the addition of BiP 24 h post addition of GM-CSF and IL-4. Proliferation was measured by uptake of tritiated thymidine and recorded as counts per minute (cpm). ELISA was used to detect IL-10 (D) in the culture supernatants and (E) by 7d cultured iDC/iDC(BiP) and fully matured mDC/mDC(BiP) differentiated as described in following 7d culture in GM-CSF and IL-4 with LPS (500 ng/ml) added for the final 2d.
as §2

[3] = tested on: T cells; experiment: Regulatory markers on T cells co-cultured with BiP-treated dendritic cells
Procedure: FIG. 11: Co-culture of T cells with BiP-treated dendritic cells (DC) upregulates regulatory markers. […] Mean ±standard deviation of three experiments is shown.
Intracellular staining was carried out with fixed cells incubated with 1% paraformaldehyde in IF buffer for 5 minutes at room temperature. The cells were washed twice with IF buffer containing 0.3% saponin for permeabilization. 0.3% saponin was then present in all IF buffer used thereafter. CTLA-4/CD152 (BD), FoxP3 (eBioscience) and indolamine 2,3-dioxygenase (Santa Cruz) and cytokines required intracellular staining. Antibodies were added at the pre-determined optimal concentration for 20 mins and then the cells were washed twice with IF buffer and analysed. Isotype controls, IgG1 and IgG2a (Becton Dickinson, Oxford, UK) were used in parallel. Cells were analysed on a FACScan cytometer using Cellquest software (Becton Dickinson, Oxford, UK).
T cells were purified from peripheral blood mononuclear cells and set up in culture with either allogeneic or autologous dendritic cells, which had been washed and irradiated, at a ratio of 10 T cells:1 DC. The cells were co-cultured in a 24 well plate in 1 ml/well, in RPMI 1640 supplemented with 10% foetal calf serum, for 4 days then the T cells were removed and washed before being investigated for the presence of T regulatory cells (see below)
Immunofluorescent staining was performed, as described previously (39), on DC harvested at day 7, T cells after 4 days co-culture with DC. Saturating concentrations of fluorescein isothiocyanate (FITC)-, phycoerythrin (PE) or peridium chlorophyll (Per-CP)-conjugated mAb were added recognizing CD14, CD86, CD80, HLA-DR, CD11c, CD1a, CD83, CD85j, IL-10 receptor; purity of the negatively selected MO and T cells was checked using CD3, CD4, CD14, CD20 and CD57 (all from Becton Dickinson/PharMingen (BD), Oxford, UK). Intracellular staining was carried out following fixation of cells with 1% paraformaldehyde for 5 minutes. Cells were then washed with immunofluorescence buffer (PBS/0.1% BSA/0.05% azide) containing 0.3% saponin. 0.3% saponin was then present in all solutions thereafter. CD152/CTLA-4 (BD, Oxford UK) and IDO (Santa Cruz, Autogen Bioclear, UK) were intracellular stains. Isotype controls, IgG1 and IgG2a (BD, Oxford, UK) were used in parallel. Cells were analysed on a FACScan/FACScalibur cytometers using Cellquest software (BD, Oxford, UK).

SMILES: COc1cccc(-c2cc(=O)c3ccccc3o2)c1N [PD98059, reference compound]
- IL-10 production by early DC(BiP) cultures [1]: did not inhibit IL-10 production
- reversal of BiP's inhibitory activity on the allogeneic response [2]: could not

SMILES: Cn1cc(C[C@H](N)C(=O)O)c2ccccc21 [1MT, 1 methyl tryptophan, reference compound]
- proliferation of T cells in an allogeneic response after co-culture with 1MT ([3]; 1MT 200 μM added to co-cultures of T cells with autologous mDC or mDC(BiP)): increased proliferation by the T cells
- T cell expression of intracellular CTLA-4 in the presence of 1MT ([3]; 1MT 200 μM in mDC/mDC(BiP)-T cell co-cultures, n=3): significant reduction in T cell expression of CTLA-4

SMILES: C[S+]([O-])c1ccc(-c2nc(-c3ccncc3)c(-c3ccc(F)cc3)[nH]2)cc1 (stereo not drawn) [SB203580, reference compound]
- IL-10 production by early DC(BiP) cultures [1]: not detected
- reversal of BiP's inhibitory activity on the allogeneic response [2]: totally reversed BiP's inhibitory activity
